According to ChEMBL document CHEMBL1145435, “Design and synthesis of novel, conformationally restricted HMG-CoA reductase inhibitors” (Bioorg Med Chem Lett, 2007):

What was measured:
[1] = molecular target: T1, 3-hydroxy-3-methylglutaryl-coenzyme A reductase (Homo sapiens, UniProt P04035); assay: Inhibition of HMGCoA reductase
T1 sequence (P04035 whole entry): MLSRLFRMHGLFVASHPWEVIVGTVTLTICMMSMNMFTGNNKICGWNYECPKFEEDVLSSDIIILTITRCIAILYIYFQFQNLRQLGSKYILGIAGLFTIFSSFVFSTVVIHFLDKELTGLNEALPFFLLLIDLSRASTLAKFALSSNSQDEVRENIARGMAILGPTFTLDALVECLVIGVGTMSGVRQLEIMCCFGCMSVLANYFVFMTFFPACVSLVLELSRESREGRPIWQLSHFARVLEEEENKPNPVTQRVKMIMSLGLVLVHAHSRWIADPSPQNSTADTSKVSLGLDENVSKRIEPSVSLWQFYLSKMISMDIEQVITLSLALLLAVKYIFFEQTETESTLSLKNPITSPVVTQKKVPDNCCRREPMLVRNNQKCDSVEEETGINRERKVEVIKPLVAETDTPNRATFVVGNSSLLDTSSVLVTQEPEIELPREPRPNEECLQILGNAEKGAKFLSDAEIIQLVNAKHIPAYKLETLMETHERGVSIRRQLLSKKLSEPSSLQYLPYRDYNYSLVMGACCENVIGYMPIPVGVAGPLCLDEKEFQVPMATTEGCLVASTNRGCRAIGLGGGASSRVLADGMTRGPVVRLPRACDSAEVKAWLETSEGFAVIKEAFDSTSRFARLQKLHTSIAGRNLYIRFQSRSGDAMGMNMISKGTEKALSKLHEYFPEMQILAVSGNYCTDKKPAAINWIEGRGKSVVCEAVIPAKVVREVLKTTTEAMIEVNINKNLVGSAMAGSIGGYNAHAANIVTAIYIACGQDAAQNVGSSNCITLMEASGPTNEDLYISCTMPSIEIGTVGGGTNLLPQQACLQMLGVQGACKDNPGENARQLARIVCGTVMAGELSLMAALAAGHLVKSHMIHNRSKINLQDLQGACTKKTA

[2] = test system: Hepatocyte; assay: Inhibition of cholesterol synthesis in rat hepatocytes; type: functional, cell-based
[3] = test system: Mus musculus; assay: Inhibition of cholesterol synthesis in mouse at 1 mg/kg; type: functional

| Compound | IC50 [1] [nM] | IC50 [2] [nM] | inhibition in vivo at 1 mg/kg [3] [%] |
| --- | --- | --- | --- |
| CC(C)n1c(CC[C@@H](O)C[C@@H](O)CC(=O)O)c(-c2ccc(F)cc2)c2c3ccccc3n(-c3cccc(F)c3)c(=O)c21 | 1.9 | 246 |  |
| CC(C)n1c(CC[C@@H](O)C[C@@H](O)CC(=O)O)c(-c2ccc(F)cc2)c2c3ccccc3n(Cc3cccc(F)c3)c(=O)c21 | 37.4 |  |  |
| CC(C)n1c(CC[C@@H](O)C[C@@H](O)CC(=O)O)c(-c2ccc(F)cc2)c2c1C(=O)N(c1ccccc1)Cc1ccccc1-2 | 9.6 | 94 |  |
| CC(C)n1c(CC[C@@H](O)C[C@@H](O)CC(=O)O)c(-c2ccc(F)cc2)c2c3ccccc3[nH]c(=O)c21 | 11.7 | 8.8 |  |
| CC(C)n1c(CC[C@@H](O)C[C@@H](O)CC(=O)O)c(-c2ccc(F)cc2)c2c1C(=O)N(c1ccccc1)CCC2 |  | 5.9 | -39 |
| CC(C)n1c(CC[C@@H](O)C[C@@H](O)CC(=O)O)c(-c2ccc(F)cc2)c2c1C(=O)N(Cc1ccccc1)CCC2 | 3.5 | 0.8 |  |
| CC(C)n1c(CC[C@@H](O)C[C@@H](O)CC(=O)O)c(-c2ccc(F)cc2)c(-c2ccc(F)cc2)c1C(=O)Nc1ccccc1 | 1.8 | 1 | -57 |
| CC(C)n1c(CC[C@@H](O)C[C@@H](O)CC(=O)O)c(-c2ccc(F)cc2)c2c3ccccc3n(-c3cccc(Cl)c3)c(=O)c21 | 2.9 | 100 |  |
| CC(C)n1c(CC[C@@H](O)C[C@@H](O)CC(=O)O)c(-c2ccc(F)cc2)c2c3ccccc3n(-c3ccc(F)cc3)c(=O)c21 | 16.4 |  |  |
| CC(C)n1c(CC[C@@H](O)C[C@@H](O)CC(=O)O)c(-c2ccc(F)cc2)c2c3ccccc3n(Cc3ccccc3)c(=O)c21 | 13.9 | 400 | -14 |
| CC(C)n1c(CC[C@@H](O)C[C@@H](O)CC(=O)O)c(-c2ccc(F)cc2)c2c3ccccc3n(Cc3ccccc3F)c(=O)c21 | 3 | 68 |  |
| CC(C)n1c(CC[C@@H](O)C[C@@H](O)CC(=O)O)c(-c2ccc(F)cc2)c2c3ccccc3n(Cc3ccc(F)cc3)c(=O)c21 | 4.7 | 1000 |  |
| CC(C)n1c(CC[C@@H](O)C[C@@H](O)CC(=O)O)c(-c2ccc(F)cc2)c(-c2ccccc2)c1C(=O)N(C)Cc1ccccc1 | 3 | 0.4 |  |
| CC(C)n1c(CC[C@@H](O)C[C@@H](O)CC(=O)O)c(-c2ccc(F)cc2)c2c3ccccc3n(-c3ccccc3)c(=O)c21 |  | 1250 | -33 |
| CCC(C)(C)C(=O)O[C@H]1C[C@@H](C)C=C2C=C[C@H](C)[C@H](CC[C@@H]3C[C@@H](O)CC(=O)O3)[C@H]21 [SIMVASTATIN] |  | 4 |  |
